Drawing on patent US20220153734A1, “Pyrazolopyridine Compounds For IRE1 Inhibition” (Optikira, LLC, priority 2019, published 2022), this text covers IC50 for 16 compounds.

The target of one assay is T1, IRE1α (Homo sapiens, UniProt O75460).
T1 construct: purchased Signal Chem E31-11G
Briefly: Biochemical assay: inhibition of RNase activity of IRE1α. As to conditions: enzyme 0.325 nM, substrate 100 nM, 20 minutes. The procedure:
Biochemical Assay: Inhibition of RNase Activity of IRE1α
The RNase reactions were performed in 384 well black ProxiPlate-384 Plus plates (PERKIN Elmer) using 50 mM Tris assay buffer with 0.5 mM MgCl2, 10 mM KCl, 0.03% Tween, 2 mM DTT and 1% DMSO. Test compounds were prepared on the day of assay and dispensed using D300 digital dispenser as a 10-point ½ log dilution series in duplicate, normalized to a final DMSO concentration of […]. Test compounds were pre-incubated for 30 min at room temperature with IRE1α kinase (E31-11G from Signal Chem) in 2.5 μL of assay buffer. Then 2.5 μl of assay buffer containing substrate (5′ Alexa Fluor 647-rCrArU rGrUrC rCrGrC rArGrC rGrCrArUrG-Iowa Black RQ quencher 3′) added, giving a final concentration of enzyme of 0.325 nM and of substrate of 100 nM. After 20 minutes incubation at room temperature the reactions were stopped by added 5 μL of 5M urea, incubated at room temperature for 10 minutes and fluorescence measured on a plate reader (EnVision, PerkinElmer). IC50 values calculated by fitting a sigmoidal curve to percent inhibition of control versus compound concentration.

Assay [1] relates to ARPE-19 cells stably expressing XBP1 (a.a. 1-376). Briefly: Cellular XBP1 splicing assay (NanoLuc luciferase, thapsigargin). To be noted: thapsigargin 150 nM. It counts as cell-based. The procedure:
Cellular XBP1 Splicing Assay
ARPE-19 cells stably expressing XBP1 (a.a. 1-376) with nano-luciferase gene sequence linked so it is in frame when XBP1 is spliced, were cultured in F12 media, 10% FBS, 0.044% sodium bicarbonate, 150 μg/ml hygromycin B and seeded for assays at 5,000 cells in 384 well plates in culture media without hygromycin B and incubated at 37° C./5% CO2. After overnight incubation test compounds were added to the cell plate in a 10-point ½ log dilution series in duplicate (final DMSO concentration 0.117%). After further incubation of 30 minutes thapsigargin was added (final concentration 150 nM) and then another 4 hour incubation. A NanoLuc luciferase assay (Promega) was used according to the manufacturer's instructions to detect the luciferase and luminescence measured on a luminometer (EnVision, PerkinElmer). IC50 values calculated by fitting a sigmoidal curve to percent inhibition of control of compound concentration.

SMILES strings stand for the structures.

T1 sequence (O75460 468-977 limits assumed): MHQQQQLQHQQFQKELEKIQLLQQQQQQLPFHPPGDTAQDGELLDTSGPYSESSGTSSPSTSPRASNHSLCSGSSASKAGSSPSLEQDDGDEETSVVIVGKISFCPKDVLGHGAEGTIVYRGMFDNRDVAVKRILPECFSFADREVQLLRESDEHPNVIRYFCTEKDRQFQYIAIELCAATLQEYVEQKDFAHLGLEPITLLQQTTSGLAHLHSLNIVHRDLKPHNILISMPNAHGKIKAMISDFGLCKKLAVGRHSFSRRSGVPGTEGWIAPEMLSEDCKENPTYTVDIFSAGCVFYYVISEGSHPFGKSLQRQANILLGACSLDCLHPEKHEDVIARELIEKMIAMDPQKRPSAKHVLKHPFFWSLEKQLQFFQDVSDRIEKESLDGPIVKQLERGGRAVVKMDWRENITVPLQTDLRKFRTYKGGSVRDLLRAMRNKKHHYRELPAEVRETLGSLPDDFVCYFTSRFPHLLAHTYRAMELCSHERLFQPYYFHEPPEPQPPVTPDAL

The IC50 is the point on the concentration scale where inhibition reaches its midpoint. A higher IC50 goes with weaker potency. For the compound `CC(C)n1nc(-c2cc(F)c(NS(=O)(=O)c3ccccc3Cl)cc2F)c2c(N)ncc(C3=CCC(NC4COC4)CC3)c21` (racemic) [racemic mixture of B10 & B11, N-(4-(4-amino-1-isopropyl-7-(4-(oxetan-3-ylamino)cyclohex-1-en-1-yl)-1H-pyrazolo[4,3-c]pyridin-3-yl)-2,5-difluorophenyl)-2-chlorobenzenesulfonamide], the IC50 was 60 nM against IRE1α and 160 nM in assay [1] (Homo sapiens, ARPE-19, 4 h).

Regarding `CC(C)n1nc(-c2ccc(NS(=O)(=O)c3cc(Cl)ccc3F)c(F)c2)c2c(N)ncc(C3=CCC(NC4COC4)CC3)c21` (racemic) [racemic mixture of B14 & B15, N-(4-(4-amino-1-isopropyl-7-(4-(oxetan-3-ylamino)cyclohex-1-en-1-yl)-1H-pyrazolo[4,3-c]pyridin-3-yl)-2-fluorophenyl)-5-chloro-2-fluorobenzenesulfonamide], the IC50 is 60 nM against IRE1α and 3.3 nM in assay [1] (Homo sapiens, ARPE-19, 4 h).

`Cc1ccc(F)c(S(=O)(=O)Nc2ccc(-c3nn(C(C)C)c4c(C5=CCC(NC6COC6)CC5)cnc(N)c34)cc2F)c1` (racemic) [racemic mixture of B16 & B17, N-(4-(4-amino-1-isopropyl-7-(4-(oxetan-3-ylamino)cyclohex-1-en-1-yl)-1H-pyrazolo[4,3-c]pyridin-3-yl)-2-fluorophenyl)-2-fluoro-5-methylbenzenesulfonamide]: the IC50 against IRE1α was 13 nM; in assay [1] (Homo sapiens, ARPE-19, 4 h), 94 nM.

With `CC(C)n1nc(-c2ccc(NS(=O)(=O)c3ccccc3Cl)c(F)c2)c2c(N)ncc(C3=CCC(NC4COC4)CC3)c21` (racemic) [racemic mixture of B56 & B57, N-(4-(4-amino-1-isopropyl-7-(4-(oxetan-3-ylamino)cyclohex-1-en-1-yl)-1H-pyrazolo[4,3-c]pyridin-3-yl)-2-fluorophenyl)-2-chlorobenzenesulfonamide], the IC50 was 26 nM at IRE1α and 52 nM in assay [1] (Homo sapiens, ARPE-19, 4 h).

In turn, `Nc1ncc(C2=CCC(NC3COC3)CC2)c2c1c(-c1ccc(NS(=O)(=O)Cc3ccccc3F)c(F)c1)nn2C1CC1` (single isomer, unassigned) [Compound B20, N-(4-(4-amino-1-cyclopropyl-7-(4-(oxetan-3-ylamino)cyclohex-1-en-1-yl)-1H-pyrazolo[4,3-c]pyridin-3-yl)-2-fluorophenyl)-1-(2-fluorophenyl)methanesulfonamide] displayed an IC50 in assay [1] (4 hour) of 38 nM. This lies in the double-digit nanomolar range.

Compound `Nc1ncc(C2=CCC(NC3COC3)CC2)c2c1c(-c1ccc(NS(=O)(=O)Cc3ccccc3F)c(F)c1)nn2C1CC1` (single isomer, unassigned) [Compound B21, N-(4-(4-amino-1-cyclopropyl-7-(4-(oxetan-3-ylamino)cyclohex-1-en-1-yl)-1H-pyrazolo[4,3-c]pyridin-3-yl)-2-fluorophenyl)-1-(2-fluorophenyl)methanesulfonamide] returned an IC50 in assay [1] (4 hour) of 11 nM.

In assay [1] (4 hour), `CCn1nc(-c2ccc(NS(=O)(=O)Cc3ccccc3Cl)cc2)c2c(N)ncc(C3=CCC(NC4COC4)CC3)c21` (single isomer, unassigned) [Compound B25, N-(4-(4-amino-1-ethyl-7-(4-(oxetan-3-ylamino)cyclohex-1-en-1-yl)-1H-pyrazolo[4,3-c]pyridin-3-yl)phenyl)-1-(2-chlorophenyl)methanesulfonamide] registered an IC50 of 170 nM. Against the preceding compound, the IC50 is about 15-fold higher.

Take `CCn1nc(-c2ccc(NS(=O)(=O)c3cc(Cl)ccc3F)c(F)c2)c2c(N)ncc(C3=CCC(NC4COC4)CC3)c21` (single isomer, unassigned) [Compound B39, N-(4-(4-amino-1-ethyl-7-(4-(oxetan-3-ylamino)cyclohex-1-en-1-yl)-1H-pyrazolo[4,3-c]pyridin-3-yl)-2-fluorophenyl)-5-chloro-2-fluorobenzenesulfonamide]: in assay [1] (4 hour), 220 nM corresponded to half-maximal inhibition (IC50).

As for `CC(C)n1nc(-c2ccc(NS(=O)(=O)c3ccccc3Cl)c(F)c2)c2c(N)ncc(C3=CCC(NC4COC4)CC3)c21` (single isomer, unassigned) [Compound B56, N-(4-(4-amino-1-isopropyl-7-(4-(oxetan-3-ylamino)cyclohex-1-en-1-yl)-1H-pyrazolo[4,3-c]pyridin-3-yl)-2-fluorophenyl)-2-chlorobenzenesulfonamide], the IC50 in assay [1] (4 hour) amounted to 200 nM. The IC50 values of the last two compounds are within 1.5-fold of each other.

Regarding `CC(C)n1nc(-c2ccc(NS(=O)(=O)c3ccccc3Cl)c(F)c2)c2c(N)ncc(C3=CCC(NC4COC4)CC3)c21` (single isomer, unassigned) [Compound B57, N-(4-(4-amino-1-isopropyl-7-(4-(oxetan-3-ylamino)cyclohex-1-en-1-yl)-1H-pyrazolo[4,3-c]pyridin-3-yl)-2-fluorophenyl)-2-chlorobenzenesulfonamide], 20 nM corresponded to half-maximal inhibition in assay [1] (4 hour) (IC50).

In the case of `COCCN[C@H]1CC[C@H](c2cnc(N)c3c(-c4cc(F)c(NS(=O)(=O)c5cccc(F)c5)cc4F)nn(C(C)C)c32)CC1` [Compound A33, N-(4-(4-amino-1-isopropyl-7-((1r,4r)-4-((2-methoxyethyl)amino)cyclohexyl)-1H-pyrazolo[4,3-c]pyridin-3-yl)-2,5-difluorophenyl)-3-fluorobenzenesulfonamide], the IC50 in assay [1] (Homo sapiens, ARPE-19, 4 h) turned out to be 49 nM.

As to `COCCN[C@H]1CC[C@H](c2cnc(N)c3c(-c4cc(F)c(NS(=O)(=O)c5cc(OC(F)(F)F)ccc5F)cc4F)nn(C(C)C)c32)CC1` [Compound A59, N-(4-(4-amino-1-isopropyl-7-((1r,4r)-4-((2-methoxyethyl)amino)cyclohexyl)-1H-pyrazolo[4,3-c]pyridin-3-yl)-2,5-difluorophenyl)-2-fluoro-5-(trifluoromethoxy)benzenesulfonamide], half-maximal inhibition in assay [1] (Homo sapiens, ARPE-19, 4 h) (IC50) required 44 nM.

In the case of `CCCOc1ccc(F)c(S(=O)(=O)Nc2cc(F)c(-c3nn(C(C)C)c4c3c(N)ncc4[C@H]3CC[C@H](NCCOC)CC3)cc2F)c1` [Compound A60, N-(4-(4-amino-1-isopropyl-7-((1r,4r)-4-((2-methoxyethyl)amino)cyclohexyl)-1H-pyrazolo[4,3-c]pyridin-3-yl)-2,5-difluorophenyl)-2-fluoro-5-propoxybenzenesulfonamide], the IC50 in assay [1] (Homo sapiens, ARPE-19, 4 h) is 16 nM.

In turn, `COCCN[C@H]1CC[C@H](c2cnc(N)c3c(-c4cc(F)c(NS(=O)(=O)c5cc(Cl)ccc5Cl)cc4F)nn(C(C)C)c32)CC1` [Compound A61, N-(4-(4-amino-1-isopropyl-7-((1r,4r)-4-((2-methoxyethyl)amino)cyclohexyl)-1H-pyrazolo[4,3-c]pyridin-3-yl)-2,5-difluorophenyl)-2,5-dichlorobenzenesulfonamide] returned an IC50 in assay [1] (Homo sapiens, ARPE-19, 4 h) of 5 nM.

For the compound `CCc1ccc(Cl)c(S(=O)(=O)Nc2cc(F)c(-c3nn(C(C)C)c4c3c(N)ncc4[C@H]3CC[C@H](NCCOC)CC3)cc2F)c1` [Compound A62, N-(4-(4-amino-1-isopropyl-7-((1r,4r)-4-((2-methoxyethyl)amino)cyclohexyl)-1H-pyrazolo[4,3-c]pyridin-3-yl)-2,5-difluorophenyl)-2chloro-5-ethylbenzenesulfonamide], it took 6 nM to reach half-maximal inhibition in assay [1] (Homo sapiens, ARPE-19, 4 h) (IC50).

The compound `CC(F)CN[C@H]1CC[C@H](c2cnc(N)c3c(-c4cc(F)c(NS(=O)(=O)c5ccccc5F)cc4F)nn(C(C)C)c32)CC1` (some centres unmarked) [Compound A63, N-(4-(4-amino-7-((1r,4r)-4-((2-fluoropropyl)amino)cyclohexyl)-1-isopropyl-1H-pyrazolo[4,3-c]pyridin-3-yl)-2,5-difluorophenyl)-2-fluorobenzenesulfonamide] yielded an IC50 in assay [1] (Homo sapiens, ARPE-19, 4 h) of 13 nM.
